According to patent US9622953B2, “Cosmetic use of catalytic oxidation compounds chosen from porphyrins, phthalocyanines and/or porphyrazines as deodorant agent” (L'Oreal, priority 2011, dated 2017):

Assays:
[1] = Test 1: Oxidation of 2,2,6,6-tetramethylpiperidine (TEMP); conditions: phosphate buffer pH 7.4, 50 mM TEMP, porphyrin 0.5 μM, oxygen saturated, daylight, 1 hour, EPR
Procedure: (§1) The oxidizing agent used during this test is dissolved oxygen.
A solution comprising a phosphate buffer (pH 7.4), 50 mM of the compound 2,2,6,6-tetramethylpiperidine (TEMP) and a porphyrin compound at 0.5 μM is prepared. The solution is saturated with oxygen. The solution is subjected to daylight.
After 1 hour, electron paramagnetic resonance spectrometry (EPR) is performed on the oxidized form of the compound 2,2,6,6-tetramethylpiperidine (TEMP), which corresponds to the compound (2,2,6,6-tetramethylpiperidin-1-yl)oxyl, known as TEMPO.
With a porphyrin compound according to the invention, the appearance of the compound TEMPO is observed after bringing into contact for 1 hour.

[2] = Test 3: Activation of Hydrogen Peroxide; conditions: 1 mM porphyrin in 10-volume hydrogen peroxide, spontaneous pH, daylight
Procedure: 1 mM of a porphyrin compound is placed in 10-volume hydrogen peroxide, spontaneous pH.
The solution is subjected to daylight.
The content of hydrogen peroxide is then assayed. The porphyrin compound is regarded as within the invention if it reduces the amount of hydrogen peroxide by factor of at least 2 (5 volumes or less).

[3] = Blind sniff test of incubated flasks of human sweat by a panel of 8 testers; conditions: 1 mg of porphyrin compound in flask of sweat, same trial as Example 1
Procedure: 1) Human sweat is collected. During this collecting, the sweat is frozen.
2) The sweat is subsequently placed in a flask, so that there is an air phase above, once the flask is closed. 1 gram of sweat is placed in a 20 ml flask.
3) The porphyrin compound is placed in the flask in a proportion of 0.1 mg.
4) The flask is closed and incubated at 37° C. A test is then carried out which consists in sniffing the flask at t=4 hours and at t=16 hours.
The test is carried out blind and in comparison with a flask of sweat not comprising additive, a flask of sweat comprising a porphyrin compound not included in the present invention, such as cupric chlorophyllin, and a flask of sweat comprising 0.1 mg of triclosan.
The test is carried out by a panel composed of 8 testers who record their impression in terms of odorous intensity and of quality (ranging from neutral up to repulsive) and the mean of the impressions is produced.
1 mg of each of the porphyrin compounds is introduced into flasks comprising sweat collected in the same way as in Example 1.

[4] = Test 2: Oxidation of DMPO; conditions: aqueous solution pH=7, 100 mM DMPO, porphyrin 100 μM, oxygen saturated, daylight, 1 hour, EPR
Procedure: as §1
An aqueous solution, pH=7, comprising 100 mM of DMPO and a porphyrin compound at 100 μM, is prepared. The solution is saturated with oxygen. The solution is subjected to daylight.
After 1 hour, electron paramagnetic resonance spectrometry (EPR) is performed on the oxidized form of the compound 5,5-dimethyl-1-pyrroline N-oxide, known as DMPO-OH.
More specifically, the EPR spectrum is characterized by a hyperfine coupling constant of a^N=a^H=14.6 G.

Compound | formation of the compound TEMPO (response to Test 1) [1] | reduction of the amount of hydrogen peroxide by factor of at least 2 (response to Test 3) [2] | effectiveness in the sweat flask odour trial [3] | formation of DMPO-OH (response to Test 2) [4]
O=S(=O)(O)c1ccc(-c2c3nc(c(-c4ccc(S(=O)(=O)O)cc4)c4ccc([nH]4)c(-c4ccc(S(=O)(=O)O)cc4)c4nc(c(-c5ccc(S(=O)(=O)O)cc5)c5ccc2[nH]5)C=C4)C=C3)cc1 [anionic porphyrin compound] | responds positively | responds positively | effective | 
copper chlorophyllin [reference compound] | does not result in the formation of the compound TEMPO |  |  | 
C[n+]1ccc(-c2c3nc(c(-c4cc[n+](C)cc4)c4ccc([nH]4)c(-c4cc[n+](C)cc4)c4nc(c(-c5cc[n+](C)cc5)c5ccc2[nH]5)C=C4)C=C3)cc1 [cationic porphyrin compound] | responds positively |  | effective | responds positively
